Measured values as given in patent US20110020931A1, “PROLIFERATION PROMOTING AGENT FOR NEURAL STEM CELLS” (KYOWA HAKKO KIRIN CO., LTD., priority 2008, published 2011).

What was measured:
Assay type in all cases: cell-based
[1] = tested on: Rat adult neural stem cell line ANSC-7 cells; test: Test Example 1: Proliferation promoting activity on neural stem cells (1), Hoechst 33342 nucleus staining fluorescence; details: 96 hours culture, nucleus-stain fluorescence, read-out: proliferation promoting activity (relative value, negative control = 100%); for activity at 1 µM: 1.0 μmol/L; for activity at 0.32 µM: 0.32 μmol/L
Procedure: Rat adult neural stem cell line ANSC-7 cells prepared by the method described in the following Reference Example 1 were suspended in DMEM/F12 medium (manufactured by Invitrogen) supplemented with N-2 additives [5 μg/mL insulin (manufactured by Sigma), 100 μg/mL bovine apotransferrin (manufactured by Sigma), 6.3 ng/mL progesterone (manufactured by Sigma), 1.6 μg/mL putrescine (manufactured by Sigma) and 5.2 ng/mL sodium selenate (manufactured by Sigma)] and an antibiotics mixed liquid [0.05 U/mL penicillin and 0.05 μg/mL streptomycin (manufactured by Invitrogen)] (to be referred to as assay medium hereinafter), at a density of 1.7×10^5 cells/mL; inoculated at 0.1 mL in a 96 well plate (manufactured by Costar) of which surface was processed with polyornithine and laminin; and cultured overnight at 37° C. under an atmosphere of 5% CO2. Thereafter, 50 μl of the culture supernatant was removed, and 50 μl of a test compound which was serially diluted with the assay medium to 2 times of the final concentration or DMSO (negative control) was added to each well. After the culturing for 96 hours, 50 μl of the culture supernatant was removed, and 50 μl of a 15% neutral buffered formalin liquid (manufactured by Wako Pure Chemical Industries, Ltd.) cooled to be 4° C. was added to each well and allowed to stand for 1 hour. Thereafter, by washing twice using PBS containing 0.3% Triton X-100 (manufactured by Nacalai Tesque) (hereinafter TBST), 50 μl of Hoechst 33342 (manufactured by Nacalai Tesque) adjusted to 3.3 μmol/L with 5% skim milk solution diluted with PBS containing 0.5% Triton X-100 was added to each well and the nucleus was stained overnight at 4° C. in the dark. After washing twice with 100 μl/well of TBST and then once with PBS and subsequently soaking in 100 μl/well of PBS, fluorescence intensity of the nucleus-stained cells was measured using a fluorometer FDSS 6000 (Hamamatsu Photonics K.K.). By regarding the measured value of well to which the cells were not inoculated as 0%, and the measured value of negative control as 100%, relative values in the test compound addition group were calculated.
(§1) After putting a 7-week-old Sprague Dawley Rat to sleep by ether anesthesia and subsequent decapitation, the skull was cut open from the parietal region to extract the brain. Under a microscope, tissues including circumventricular region were isolated from the extracted brain by using ophthalmic scissors and tweezers. The tissues including circumventricular region were cut into fragments of about 1 mm^3 using ophthalmic scissors and scalpels and then subjected to 30 minutes of digestion reaction at 37° C. in 5 mL of Hanks' buffer containing 2.5 U/mL of papain, 250 U/mL of DNase (all manufactured by Worthington, Freehold, N.J.) and 1 U/mL of a neutral protease (Dispase, manufactured by Boehringer-Mannheim Corp.) (HBSS buffer, manufactured by Invitrogen). The mixture of cells and tissues obtained by the reaction was washed three times with DMEM (manufactured by Invitrogen) containing 10% fetal bovine serum (manufactured by Hyclone) and then dissolved in the DMEM containing 10% fetal bovine serum, followed by removing the undigested materials using a nylon mesh of 10 μm.
(§2) The thus obtained cells crude extract was cultured overnight on a culture dish of 10 cm, in an incubator of 37° C. using DMEM/F12 medium (manufactured by Invitrogen) containing 10% fetal bovine serum. On the next day, the medium was replaced with DMEM/F12 containing 1% of N-2 additives (manufactured by Invitrogen) and 20 ng/mL of FGF 2 (manufactured by Pepro Tech) and the culturing was started. Once in 3 days, half of the medium was replaced with new DMEM/F12 containing 1% of N-2 additives and 20 ng/mL of FGF 2 and the culturing was continued.
When a small colony consisted of small cells was formed, it was treated with 1% trypsin for 30 seconds to 1 minute, and the cells detached were harvested. […]

[2] = tested on: Rat adult neural stem cell line ANSC-7 cells; test: Test Example 3: Proliferation promoting activity on neural stem cells (3), same manner as Test Example 2; details: 96 h; for activity at 0.001 µM: 1 nmol/L; for activity at 0.01 µM: 10 nmol/L; for activity at 3.2 µM: 3.2 μmol/L
Procedure: (§3) Rat adult neural tem cell line ANSC-7 cells prepared by the method described in the following Reference Example 1 were suspended in the assay medium at a density of 1.7×10^5 cells/mL; inoculated in 0.1 mL portion in a 96 well plate (manufactured by Costar) of which surface was processed with polyornithine and laminin; and cultured overnight at 37° C. under an atmosphere of 5% CO2. Thereafter, 50 μl of the culture supernatant was removed, and 50 μl of a test compound which was serially diluted with the assay medium to 2 times of the final concentration or DMSO (negative control) was added to each well. After the culturing for 96 hours, 10 μl per well of a viable cell counting reagent SF (manufactured by Nacalai Tesque) was added to the culture. After culturing at 37° C. for 3 hours in a 5% CO2 incubator and subsequent stirring for 1 minute, absorbance at 490 nm (control wavelength 655 nm) was measured using a microplate spectrophotometer Emax (manufactured by Molecular Device). By regarding the measured value of well to which the cells were not inoculated as 0%, and the measured value of negative control as 100%, relative values in the test compound addition group were calculated.
Each of the tests was carried out in the same manner as in Test Example 2.
as §1, §2
(§4) When a small colony consisted of small cells was formed, it was treated with 1% trypsin for 30 seconds to 1 minute, and the cells detached were harvested. The harvested cells were inoculated on a multiple well culture dish (manufactured by Fisher Scientific) which had been coated at room temperature overnight using 10 μg/mL of polyornithine (manufactured by Sigma) and at 37° C. overnight using 5 μg/mL of mouse EHS tumor-derived laminin (Becton Dickinson), and the culturing was continued.
(§5) By continuing the above-mentioned culturing, small cells having small protrusion and thickness were concentrated. The cells were used as adult neural stem cells in the above-mentioned tests (Test Examples 1 to 3).

[3] = tested on: Rat adult neural stem cell line ANSC-7 cells; test: Test Example 2: Proliferation promoting activity on neural stem cells (2), viable cell counting reagent SF absorbance; details: 96 hours culture, absorbance 490 nm, read-out: proliferation promoting activity (relative value, negative control = 100%); for activity at 1 µM: 1.0 μmol/L; for activity at 0.32 µM: 0.32 μmol/L
Procedure: as §3, §1, §2, §4, §5

[4] = same manner as Test Example 2, read-out: proliferation promoting activity (relative value, negative control = 100%)

C=C(CCC1(C)OC2OC3CC1C21CCC2C(=CCC4CC(O)CCC42C)C31)C(C)C (stereo not shown) [Compound B]
activity at 1 µM [1]: ≥ 140%

C=C(CCC1(C)OC2OC3CC1C21CCC2C4(C)CCC(=O)CC4CC4OC42C31)C(C)C (stereo not shown) [Compound A2]
activity at 0.32 µM [1]: ≥ 160%

C=C(CCC(C)C1CC=C2C3=C(CCC21C)C1(C)CCC(O)CC1C(=O)O3)C(C)C (stereo not shown) [Compound V]
activity at 0.001 µM [2, 4]: ≥ 120%

C=C(CCC(C)C1CCC2C3C(=O)CC4CC(O)CCC4(C)C3CCC12C)C(C)C (stereo not shown) [Compound W]
activity at 0.01 µM [2, 4]: ≥ 120%

C=C(CCC(=C)C1CC(O)C2C3=CCC4CC(O)CCC4(C)C3CCC12C)C(C)C (stereo not shown) [Compound D]
activity at 1 µM [1]: ≥ 140% | activity at 1 µM [3]: ≥ 130%

C=C(CCC1(C)OC2OC3CC1C21CCC2C4(C)CCC(O)CC4CC4OC42C31)C(C)C (stereo not shown) [Compound A]
activity at 0.32 µM [1]: ≥ 150% | activity at 0.32 µM [3]: ≥ 130%

C=C(CCC(C)C1CCC2C3=C(CCC21C)C1(C)CCC(O)CC1CC3=O)C(C)C (stereo not shown) [Compound F]
activity at 1 µM [1]: ≥ 140% | activity at 1 µM [3]: ≥ 130%

C=C(/C=C/C(C)C1CCC2C3C(=O)CC4CC(O)CCC4(C)C3CCC12C)C(C)C (stereo not shown) [Compound X]
activity at 0.01 µM [2, 4]: ≥ 120%

CC(C)=CC(=O)c1cccc2c3c([nH]c12)C(C)(C)C1CC24CCCN2CC1(C3)NC4=O (stereo not shown) [Compound N]
activity at 1 µM ([2]; 1 μmol/L, same manner as Test Example 2, read-out: proliferation promoting activity (relative value, negative control = 100%)): 120%

C=C(CCC(C)(O)C1CC(O)C2C3=CCC4CC(O)CCC4(C)C3CCC21C)C(C)C (stereo not shown) [Compound J]
activity at 3.2 µM ([3]; 3.2 μmol/L): ≥ 125%

CC(C)C(C)/C=C/C(C)C1CCC2/C(=C/C(=O)OC3CCC(C)(O)C(=O)C3)C(=O)CCC21C (stereo not shown) [Compound BB]
activity at 3.2 µM [2, 4]: 120%

CC(C)C(C)/C=C/C(C)C1CCC2/C(=C/C(=O)OC3(C)CCC(O)CC3=O)C(=O)CCC21C (stereo not shown) [Compound AA]
activity at 3.2 µM [2, 4]: 120%

C=C(CCC1(C)OC2OC3CC1C21CCC2C(=CC=C4CC(O)CCC42C)C31)C(C)C (stereo not shown) [Compound L]
activity at 0.32 µM [3]: ≥ 130%

C=C(CCC(C)(O)C1CCC2C3=CCC4CC(O)CCC4(C)C3CCC21C)C(C)C (stereo not shown) [Compound C]
activity at 0.32 µM [1]: ≥ 150% | activity at 0.32 µM [3]: ≥ 130%

C=C(CCC1(C)OC2OC3CC1C21CCC2C4(C)CCC(O)CC4CCC2(O)C31)C(C)C (stereo not shown) [Compound A5]
activity at 0.32 µM [1]: ≥ 160%

C=C(CCC(C)C1CCC2=C3OC(=O)C4CC(O)CCC4(C)C3CCC21C)C(C)C (stereo not shown) [Compound U]
activity at 0.001 µM [2, 4]: ≥ 120%

C=C(CCC(=C)C1CC(O)C2C3=CCC4CC(=O)CCC4(C)C3CCC12C)C(C)C (stereo not shown) [Compound K]
activity at 1 µM [3]: ≥ 130%

C=C(CCC(C)C1CCC2C3=C(CCC21C)C1(C)CCC(O)CC1C(=O)O3)C(C)C (stereo not shown) [Compound E]
activity at 0.32 µM [1]: ≥ 150% | activity at 0.32 µM [3]: ≥ 130%

C=C(CCC1(C)OC(=O)C23CCC4C5(C)CCC(O)CC5CC5OC54C2C(O)CC13)C(C)C (stereo not shown) [Compound H]
activity at 1 µM [3]: ≥ 130%

C=C(CCC(C)(O)C1CC(O)C2=C3C(O)CC4CC(O)CCC4(C)C3CCC21C)C(C)C (stereo not shown) [Compound Y]
activity at 3.2 µM [2, 4]: 120%

CC(C)C(C)CCC1(C)OC2OC3CC1C21CCC2C4(C)CCC(O)CC4CC4OC42C31 (stereo not shown) [Compound A3]
activity at 0.32 µM [1]: ≥ 160%

COC(C)(C)/C=C/c1cccc2c3c([nH]c12)C(C)(C)C1CC24CCCN2CC1(C3)NC4=O (stereo not shown) [Compound M]
activity at 0.32 µM ([2]; read-out: proliferation promoting activity (relative value, negative control = 100%)): 120%

C=C(CCC1(C)OC2OC3CC1C21CCC2C4(C)CCC(OC(C)=O)CC4CC4OC42C31)C(C)C (stereo not shown) [Compound A1]
activity at 0.32 µM [1]: ≥ 160%
